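Each compound was tested at five concentrations against cells in 96-well plates for 48 hours. TGI denotes the concentration required for complete inhibition of growth.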
What was measured:
Assay in all cases: NCI tumour cell line growth inhibition, 48 h
A549 NSCLC = test system: A549 NSCLC
CAKI-1 renal = test system: CAKI-1 renal
K-562 leukemia = test system: K-562 leukemia
MDA-MB-435 = test system: MDA-MB-435
TK-10 renal = test system: TK-10 renal
MOLT-4 leukemia = test system: MOLT-4 leukemia
MCF7 breast = test system: MCF7 breast
OVCAR-5 ovarian = test system: OVCAR-5 ovarian
RPMI-8226 leukemia = test system: RPMI-8226 leukemia
U251 CNS = test system: U251 CNS
MALME-3M melanoma = test system: MALME-3M melanoma
SF-539 CNS = test system: SF-539 CNS
SF-295 CNS = test system: SF-295 CNS
SK-OV-3 ovarian = test system: SK-OV-3 ovarian
OVCAR-8 ovarian = test system: OVCAR-8 ovarian
HOP-92 NSCLC = test system: HOP-92 NSCLC
UACC-62 melanoma = test system: UACC-62 melanoma
M14 melanoma = test system: M14 melanoma
SK-MEL-5 melanoma = test system: SK-MEL-5 melanoma
EKVX NSCLC = test system: EKVX NSCLC
COLO 205 colon = test system: COLO 205 colon
CCRF-CEM leukemia = test system: CCRF-CEM leukemia
SN12C renal = test system: SN12C renal
DU-145 prostate = test system: DU-145 prostate
A498 renal = test system: A498 renal
NCI-H23 lung = test system: NCI-H23 lung
UO-31 renal = test system: UO-31 renal
SW-620 colon = test system: SW-620 colon
NCI/ADR-RES ovarian = test system: NCI/ADR-RES ovarian
SF-268 CNS = test system: SF-268 CNS
SNB-75 CNS = test system: SNB-75 CNS
KM12 colon = test system: KM12 colon
HT29 colon = test system: HT29 colon
786-0 renal = test system: 786-0 renal
SK-MEL-2 melanoma = test system: SK-MEL-2 melanoma
NCI-H522 lung = test system: NCI-H522 lung
HCT-15 colon = test system: HCT-15 colon
T-47D breast = test system: T-47D breast
ACHN renal = test system: ACHN renal
HS 578T breast = test system: HS 578T breast
PC-3 prostate = test system: PC-3 prostate
LOX IMVI melanoma = test system: LOX IMVI melanoma
RXF 393 renal = test system: RXF 393 renal
HCC-2998 colon = test system: HCC-2998 colon
NCI-H226 lung = test system: NCI-H226 lung
UACC-257 melanoma = test system: UACC-257 melanoma
MDA-MB-231 breast = test system: MDA-MB-231 breast
HCT-116 colon = test system: HCT-116 colon
SNB-19 CNS = test system: SNB-19 CNS
MDA-N = test system: MDA-N
IGROV1 ovarian = test system: IGROV1 ovarian
NCI-H460 lung = test system: NCI-H460 lung
SK-MEL-28 melanoma = test system: SK-MEL-28 melanoma
OVCAR-3 ovarian = test system: OVCAR-3 ovarian
HOP-62 NSCLC = test system: HOP-62 NSCLC
OVCAR-4 ovarian = test system: OVCAR-4 ovarian
HL-60(TB) leukemia = test system: HL-60(TB) leukemia
SR leukemia = test system: SR leukemia
BT-549 breast = test system: BT-549 breast

Measured: TGI

CCOC(=O)C1C(c2ccco2)C2(C#N)C(=N)OC1(C)C2(C#N)C#N (stereo not drawn)
not listed: NCI-H460 lung | SK-MEL-28 melanoma | OVCAR-3 ovarian | HOP-62 NSCLC | OVCAR-4 ovarian | HL-60(TB) leukemia | SR leukemia | BT-549 breast
> 100 µM: all other assays above

O=C(N/C(=C\NC1=NCCS1)C(=O)N1CSC[C@@H]1C(=O)O)c1ccccc1
not listed: MALME-3M melanoma | SK-MEL-2 melanoma | NCI-H522 lung | HS 578T breast | IGROV1 ovarian | SR leukemia | BT-549 breast
> 100 µM: all other assays above

Nc1ncnc2c1ncn2C1OC(CO)CC1O (stereo not drawn)
82.2 µM: HS 578T breast
70.8 µM: LOX IMVI melanoma
92 µM: BT-549 breast
83.3 µM: HCT-15 colon
55.2 µM: NCI/ADR-RES ovarian
45.8 µM: 786-0 renal
43.7 µM: HCC-2998 colon
40.4 µM: PC-3 prostate
42.8 µM: K-562 leukemia
49.6 µM: OVCAR-8 ovarian
38.7 µM: NCI-H522 lung
80.2 µM: SN12C renal
42.7 µM: MDA-MB-231 breast
not listed: MDA-MB-435 | MCF7 breast | RPMI-8226 leukemia | MALME-3M melanoma | A498 renal | HT29 colon | SK-MEL-2 melanoma | T-47D breast | NCI-H460 lung | HL-60(TB) leukemia
> 100 µM: all other assays above

O=C1CCN=C(NC(=O)C(F)(F)F)N1CCc1c[nH]c2ccccc12
not listed: SNB-75 CNS | SR leukemia | BT-549 breast
> 100 µM: all other assays above

From PubChem BioAssay (NCI)
